{
  "source": "patent US20260295119A1",
  "about": "“TARGET FOR COMBATTING THE FOREIGN BODY RESPONSE TO IMPLANTABLE BIOMATERIALS” (The Regents of the University of Colorado, a body corporate, priority 2023, published 2026)",
  "key": {"human MMP-12": {"target": "T1, human MMP-12 (Homo sapiens, UniProt P39900)", "T1 construct": "purchased R&D Systems", "T1 sequence (P39900 106-470)": "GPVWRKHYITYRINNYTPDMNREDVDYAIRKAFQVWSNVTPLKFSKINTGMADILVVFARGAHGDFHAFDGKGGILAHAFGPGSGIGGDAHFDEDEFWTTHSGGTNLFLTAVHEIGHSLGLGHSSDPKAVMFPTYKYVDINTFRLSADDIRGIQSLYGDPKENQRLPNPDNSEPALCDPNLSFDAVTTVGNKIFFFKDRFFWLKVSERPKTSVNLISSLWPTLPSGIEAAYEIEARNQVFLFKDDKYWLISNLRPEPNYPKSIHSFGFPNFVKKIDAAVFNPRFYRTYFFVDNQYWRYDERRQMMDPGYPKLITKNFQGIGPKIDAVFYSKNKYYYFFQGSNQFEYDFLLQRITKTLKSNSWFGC", "experiment": "Cleavage of hydrogel-tethered tryptophan peptides by MMP-12", "format": "biochemical", "conditions": "role: substrate; 5 nM activated MMP-12, 285 nm; p<0.001", "method": "To test the cleavability of the chosen peptides by MMP-12, the sequences were modified with tryptophan residues, tethered to PEG hydrogels at 5 μM concentration, and exposed to 5 nM MMP-12 in buffer. First, the maleimide of acrylate-PEG-maleimide (MW 3,400 g/mol) was reacted with the cysteine residue contained in the peptide sequence to create a PEG-conjugated peptide with tryptophan at one end and an acrylate group at the other. This product was then combined with PEGDA monomer and photoinitiator in PBS and photopolymerized, yielding a gel (FIG. 14C). The release of the tryptophan-containing cleaved portion of the sequence was monitored by measuring buffer absorbance at 285 nm over time (FIG. 14D).\nFor the release studies, acrylate-PEG-maleimide (6.8 mg) was reacted with peptide (GWGPLGLEEACG [SEQ ID NO. 2] or GWGPLGLARCG [SEQ ID NO. 1], 5 mM) in 500 μL dry DMF for 30 minutes with stirring. PEGDA (100 mg) was then added to the reaction mixture and vortexed to combine. Irgacure 2959 was added as photoinitiator in dry DMF (6 mg/mL). This precursor solution was gelled between glass slides with a 1 mm spacer under UV light for 45 minutes. The resulting 20 wt % hydrogel was soaked in ultrapure water to rinse away DMF followed by additional rinses in TCNB assay buffer (50 mM Tris, 10 mM CaCl2, 150 mM NaCl, 0.05% (w/v) Brij-35, pH 7.5).\nTryptophan Release: Peptide-conjugated hydrogels swollen in TCNB assay buffer were punched to 5 mm diameter and placed in wells of a 96-well clear, flat bottom well plate (n=4 gels for each peptide). Human MMP-12 was reconstituted in 10 mM MES, 0.1 M NaCl, 100 μM CaCl2, 0.1% (w/v) CHAPS, 1 μM ZnSO4, 0.1% (w/v) PEG, pH 6.0 buffer to 0.25 mg/mL. It was then diluted to 50 μg/mL with TCNB assay buffer and activated by adding 100 mM APMA in DMSO to 1 mM final concentration and incubating at 37° C. for 24 hours. […] At each time point, 2 μL supernatant was removed from each well and spectrophotometrically measured on the Nanodrop at 285 nm. […]"}, "RAW 264.7 macrophages [1]": {"tested_on": "RAW 264.7 macrophages", "experiment": "MMP-12 secretion by RAW 264.7 macrophages (ELISA)", "format": "cell-based, mouse", "conditions": "PAM3CSK4 50 ng/ml, 8 h", "method": "RAW 264.7 macrophages were cultured in serum-free (1% ITS) media (FIG. 14A) or serum-containing medium (10% FBS) (FIG. 14(B)) and treated or not with PAM3CSK4 (50 ng/ml), then their secretion of MMP-12 over the 8-hour period was evaluated by ELISA. Macrophages with (p<0.01) and without (p<0.001) PAM3CSK4 stimulation secreted MMP-12 when cultured in the serum-free media, with average levels of 245 and 556 μg/mL, respectively. In serum-containing media, the production of MMP-12 was on average 178 μg MMP-12/mL (p<0.01 relative to blank) in unstimulated cells. […] Unstimulated cells in the same media secreted MMP-12. MMP-12 production by the cells was higher in ITS media than in FBS media.\nCell Culture: RAW 264.7 cells were cultured in DMEM with 10% FBS and 1% penicillin/streptomycin at 37° C. and 5% CO2. Depending on the experiment, cells were seeded in tissue culture polystyrene (TCPS) well plates ([…]) or on hydrogels at 625,000 cells/cm^2 and allowed to adhere overnight. For transwell experiments, a transwell with a hydrogel was inserted into the well after the cells were allowed to adhere. […]\n(§1) Protein Assays: Cell culture medium was thawed on ice. IL-6 in the culture media was quantified using an ELISA. MMP-12 production in culture media was measured per kit instructions. […]"}, "RAW 264.7 macrophages [2]": {"tested_on": "RAW 264.7 macrophages", "experiment": "IL-6 production by PAM3CSK4-stimulated RAW 264.7 macrophages", "format": "cell-based, mouse", "method": "The ability of free MyD88 inhibitor T6167923 (Br) or T6167923 (SH) in solution to attenuate pro-inflammatory cytokine production by macrophages treated with PAM3CSK4 was assessed (FIG. 12A). When macrophages were treated with PAM3CSK4, IL-6 production increased (p<0.01) by 3-fold. […] Comparing the two inhibitors at 100 μM, T6167923 (Br) had attenuated IL-6 production by 89%, while T6167923 (SH) had attenuated IL-6 product by 58%.\nInhibitor Preparation and Synthesis: 200 μM stock solutions of T6167923 (Br) and T6167923 (SH) were prepared by first dissolving the inhibitors in 100 μL anhydrous DMSO, then adding dropwise to 9.9 mL culture medium and sterile filtering. The stock solution was then serially diluted in additional cell culture medium to make treatment concentrations. The inhibitor-PEG-peptide molecule was synthesized as follows. Bromoacetamido-dPEG12-TFP ester (36 mg) was added to 400 μL anhydrous DMSO and stirred in an amber vial to dissolve. T6167923 (SH) (17.65 mg) was dissolved in 100 μL anhydrous DMSO before being added dropwise to the amber vial. After 20 minutes of stirring, 1.5 mL of 50 mM sodium bicarbonate buffer, pH 8.4 was slowly added to the vial and the reaction was continued for an additional 20 minutes. Triglycine (8.6 mg) was combined with 2 mL of 50 mM sodium bicarbonate buffer, pH 8.4, then added dropwise to the reaction mixture in the amber vial with stirring. The reaction progressed overnight, then the product was purified by dialysis with 100-500 MWCO tubing against DI water. The reaction was monitored by consumption of sulfhydryls and primary amines. The product was sterile filtered and then lyophilized.\nCell Culture: RAW 264.7 cells were cultured in DMEM with 10% FBS and 1% penicillin/streptomycin at 37° C. and 5% CO2. Depending on the experiment, cells were seeded in tissue culture polystyrene (TCPS) well plates ([…]) or on hydrogels at 625,000 cells/cm^2 and allowed to adhere overnight. For transwell experiments, a transwell with a hydrogel was inserted into the well after the cells were allowed to adhere. For the (T6167923 (Br), T6167923 (SH)), and inhibitor-PEG-peptide studies, cells were treated with inhibitor for a specified period of time. To do this, medium was aspirated from the well and replaced with inhibitor-containing DMEM. Control conditions included cells only and cells plus 1% anhydrous DMSO by volume. After a specified period of culture time, PAM3CSK4 was added at 50 ng/ml and the cells were cultured for a prescribed period of time. Medium was collected and flash frozen for ELISA. […]\nas §1"}},
  "note": "No end group written: not given here.",
  "data": [
    {"compound": "GWGPLGLARCG [SEQ ID NO. 1]: MMP-12 cleavable peptide, tryptophan modified, tethered to PEG hydrogel (also: tethered to PEG hydrogel)", "values": [
      {"measurement": "cleavage by MMP-12 (tryptophan cumulative release)", "setting": "human MMP-12", "value": "cleaved by the MMP-12"},
      {"measurement": "rate of cleavage by MMP-12 relative to the longer peptide (SEQ ID NO. 2)", "setting": "human MMP-12", "value": "slightly faster rate"}
    ]},
    {"compound": "PAM3CSK4", "values": [
      {"measurement": "MMP-12 levels compared to blank (no cells)", "setting": "RAW 264.7 macrophages [1]; serum-containing medium (10% FBS)", "value": "not statistically different to the blank"},
      {"measurement": "MMP-12 secretion", "setting": "RAW 264.7 macrophages [1]; serum-free (1% ITS) media, p<0.01 vs blank", "value": 245, "unit": "µg/mL"},
      {"measurement": "increase in IL-6 production", "setting": "RAW 264.7 macrophages [2]; PAM3CSK4 treatment vs unstimulated, no inhibitor, p<0.01", "value": "3 -fold"}
    ]},
    {"compound": "C[C@H](NC(=O)N1CCN(S(=O)(=O)c2cccc(Br)c2)CC1)c1cccs1", "note": "[T6167923 (Br)]", "values": [
      {"measurement": "attenuation of IL-6 production", "setting": "RAW 264.7 macrophages [2]; 100 μM inhibitor, PAM3CSK4 50 ng/ml", "value": 89, "unit": "%"},
      {"measurement": "dose dependence of IL-6 attenuation", "setting": "RAW 264.7 macrophages [2]; PAM3CSK4 50 ng/ml", "value": "a dose-dependent response was observed"},
      {"measurement": "inhibitor concentrations at which IL-6 was significantly lower than untreated PAM3CSK4-stimulated cells", "setting": "RAW 264.7 macrophages [2]; PAM3CSK4 50 ng/ml", "value": "50 to 200", "unit": "µM"}
    ]},
    {"compound": "GWGPLGLEEACG [SEQ ID NO. 2]: MMP-12 cleavable peptide, tryptophan modified, tethered to PEG hydrogel (also: tethered to PEG hydrogel)", "values": [
      {"measurement": "cleavage by MMP-12 (tryptophan cumulative release)", "setting": "human MMP-12", "value": "cleaved by the MMP-12"}
    ]}
  ]
}
